{
  "source": "patent US20240415120A1",
  "about": "“BINARY BIOHERBICIDE COMPRISING PELARGONIC ACID” (YPF TECNOLOGÍA S.A., priority 2023, published 2024)",
  "key": {"seedlings of A. hybridus": {"system": "seedlings of A. hybridus", "test": "Early post-emergence damage to photosystem II (Fv/Fm fluorometry)", "format": "in vivo, Amaranthus hybridus", "conditions": "5 mM", "protocol": "• Plant material and culturing conditions Seeds of Amaranthus hybridus were sown on plastic boxes of 15.5×11×4 cm with moist absorbing paper (25 seeds per box). The boxes were placed in a culture chamber at 22° C. and 50 μmol photons m^−2 s^−1 with a photoperiod of 16 hours. […] The application volume for each treatment was 10 ml per box on the absorbing paper. After 7 days post-application, to avoid possible chlorosis symptoms due to a lack of nutrients, 5 ml of nutritive solution were added to each box, with the following formulation: 5.0 mM Ca(NO3)2, 5.0 mM KNO3, 2.0 mM MgSO4, 1.0 mM KH2PO4, 20.0 μM FeNaEDTA, 5.0 μM H3BO3, 0.9 μM MnCl2, 0.8 μM ZnCl2, 0.3 μM CuSO4 y 0.01 μM Na2MoO4, pH 5.5-6.5. The experiments were finished 12 days post-application.\nThe tested formulations were F1 and F2, both at 5 mM. […]\nThe objective was to assess the early post-emergence effect of the tested formulations on seedlings of A. hybridus of 7 days post-sowing. At 1, 2, 5, 7 and 12 days post-application the fluorometry measurements (Fv/Fm) were carried out to ascertain the damage to photosystem II, and the plants with bleaching or chlorosis symptoms were counted. […]\nFor the experiments, three boxes per treatment were used: both experiments had 5 treatments. Each experiment was repeated 3 times (assays 1, 2 and 3), and each assay was analyzed separately. […]"}, "Pseudomonas monteilii": {"system": "Pseudomonas monteilii", "test": "Effect on growth-promoting bacteria in liquid culture", "format": "cell-based", "conditions": "C + N 5 mM combined; F3, F4, F5 0.5% v/v; atrazine 5 mM; LB medium, 32° C.; Gompertz model", "protocol": "To evaluate the effect of the compositions prepared in Example 6 on growth-promoting bacteria, a model strain of Pseudomonas monteilii was used. The microorganism was inoculated in liquid LB medium (initial optical density at 600 nm=0.1), and incubated in Erlenmeyer flasks at 32° C., 180 rpm. The effect of the active compounds (citral (C)+pelargonic acid (N), at a combined concentration of 5 mM), F3, F4 and F5 (all three at 0.5% v/v) and atrazine (5 mM) was assessed by adding each treatment to the culture medium at the moment of inoculation. The positive growth control was performed without adding any compound. Liquid samples were taken during the growth, and the biomass of the cultures was evaluated using the drop plate method described by Herigstad et al. (2001). Three repetitions were carried out in different times and the results were analyzed with the software Statistica (StatSoft, 2007) to adjust them to the Gompertz model, and thus calculate the growth parameters."}, "Lolium multiflorum": {"system": "Lolium multiflorum", "test": "Pre-emergence germination assay in Petri dishes", "format": "in vivo", "conditions": "168 h, L. multiflorum, after 7 days of exposure, combined concentration of both active ingredients, read-out: Germination IC50 (Confidence limit 95%)", "protocol": "(§1) Aqueous extracts containing binary mixtures of formulations: F1 (citral+pelargonic acid) and F2 (thymoquinone+pelargonic acid), in both cases with a 1:1 ratio between the active compounds and with the addition of an emulsifier (soy lecithin at 35% w/w, YPF Agro, 2022) at 0.2% v/v, were tested in Petri dishes following the methodology disclosed in U.S. Pat. No. 11,083,197, with some modifications. […] The extracts were placed onto 9-cm diameter paper disks in Petri dishes. Then, ten seeds of each species were placed onto paper disks. Subsequently, the dishes were closed under the following experimental conditions: room temperature, 26.0±1.8° C.; relative humidity, 50±9.7%; and photoperiod, 12:12. The seeds were considered germinated if their roots were longer than 1 mm. Aqueous extracts without the addition of the bioactive formulation were used as negative control, whereas atrazine was used as positive control. The assays were performed in triplicates for each concentration.\n(§2) The IC50 were obtained using the software POLO PLUS (LeOra Software Company).\n(§3) An aqueous extract comprising the emulsifier used in Example 1 at 0.2% w/w was prepared and seeds of different species were exposed to the extract following a methodology as the one used in Example 1. Pure water was used as a negative control."}, "Solanum lycopersicum": {"system": "Solanum lycopersicum", "test": "Pre-emergence germination assay in Petri dishes", "format": "in vivo", "conditions": "168 h, S. lycopersicum, after 7 days of exposure, combined concentration of both active ingredients, read-out: Germination IC50 (Confidence limit 95%)", "protocol": "as §1, §2, §3"}, "Amaranthus hybridus": {"system": "Amaranthus hybridus", "test": "Pre-emergence germination assay in Petri dishes", "format": "in vivo", "conditions": "168 h, A. hybridus, after 7 days of exposure, combined concentration of both active ingredients, read-out: Germination IC50 (Confidence limit 95%)", "protocol": "as §1, §2, §3"}},
  "note": "pIC50: −log10 of the molar value.",
  "data": [
    {"smiles": "CCNc1nc(Cl)nc(NC(C)C)n1", "note": "[Atrazine, atrazine]", "values": [
      {"measurement": "Course of Fv/Fm values", "setting": "seedlings of A. hybridus; day 1 to 12 days post-application", "result": "gradual fall in the Fv/Fm values from day 1 until reaching minimum or non-measurable values at 12 days"},
      {"measurement": "Effects on photosystem II in comparison to treatments F1 and F2", "setting": "seedlings of A. hybridus; every assay", "result": "lower effects"},
      {"measurement": "Duplication time", "setting": "Pseudomonas monteilii", "result": 22.03, "unit": "min"},
      {"measurement": "Lag pase length", "setting": "Pseudomonas monteilii", "result": 1.3, "unit": "h"},
      {"measurement": "maximum growth rate μmax", "setting": "Pseudomonas monteilii", "result": 1.89, "unit": "h⁻¹"},
      {"measurement": "pIC50", "setting": "Lolium multiflorum", "result": 1.41},
      {"measurement": "pIC50", "setting": "Solanum lycopersicum", "result": 1.43},
      {"measurement": "pIC50", "setting": "Amaranthus hybridus", "result": 1.39}
    ]}
  ]
}
